From ChEMBL document CHEMBL4033756, “Identification of Better Pharmacokinetic Benzothiazinone Derivatives as New Antitubercular Agents” (ACS Med Chem Lett, 2017) come the findings set out here.

The subject of data set [1] is Mycobacterium tuberculosis. Nature of the data set: Antitubercular activity against Mycobacterium tuberculosis H37Rv after 7 days by microplate alamar blue assay. It counts as functional. The settings on record: 168 h. (Alamar Blue is a resazurin reagent that responds to reducing activity.)
Data set [2] can be described thus: Aqueous solubility of the compound at pH 2 after 12 hrs by HPLC-UV method. It counts as physicochemical.
Data set [3] in a line: Cytotoxicity against African green monkey Vero cells assessed as cell viability after 72 hrs by MTT assay. It counts as cell-based. The settings on record: chlorocebus sabaeus. (Tetrazolium assays rely on reduction of a dye to a coloured formazan, in cell work by metabolically active cells.)
For the next data set, the system named is Mus musculus. Nature of the data set: Acute toxicity in Kunming mouse assessed as mortality at 500 mg/kg, po measured during first 4 hours and then each hour for next 24 hrs and at 8 hourly intervals for following 7 days post dose. It counts as organism-based. The settings on record: in vivo.
Data set [4] can be described thus: Elimination half life in ICR mouse at 50 mg/kg, po by HPLC analysis. It counts as ADME, organism-based. The settings on record: in vivo, read-out: beta t1/2 (converted).
Data set [5] in a line: Tmax in ICR mouse at 50 mg/kg, po by HPLC analysis. It counts as ADME, organism-based. The settings on record: in vivo.
Data set [6] is described as follows: Cmax in ICR mouse at 50 mg/kg, po by HPLC analysis. It counts as ADME, organism-based. Also on record: dose 50 mg/kg, route oral. As to conditions: in vivo.
A short description of data set [7]: AUC (0 to infinity) in ICR mouse at 50 mg/kg, po by HPLC analysis. It counts as ADME, organism-based. Also on record: dose 50 mg/kg, time infinity, route oral. The settings on record: in vivo.
The nature of data set [8]: MRT in ICR mouse at 50 mg/kg, po by HPLC analysis. It counts as ADME, organism-based. As to conditions: in vivo.

≈ marks a conversion by molar mass, not a printed value.

The term MIC90 denotes an inhibitory concentration at the 90% level, which refers to growth in some studies and to a panel of isolates in others. In general, solubility refers to how much of the substance goes into solution per volume. For orientation: CC50 means the concentration at which the toxic effect on the cells reaches its halfway point. Compound `COc1ccc(CN2CCC3(CCN(c4nc(=O)c5cc(C(F)(F)F)cc([N+](=O)[O-])c5s4)CC3)C2)cc1` registered an MIC90 in data set [1] of 0.112 µM (≈ 0.0599 µg/mL). Moreover, in [2], the solubility at 12 h came out at 1.4 µg/mL (≈ 2.62 µM). Moreover, in [3], the CC50 at 72 h is 86.2 µM.
For orientation: Tmax means the time from dosing to the highest level. In general, Cmax refers to the highest concentration seen after dosing. What is called AUC(0-inf) is the area under the concentration-time curve extrapolated to infinity. For orientation: MRT means the average time that molecules of a dose stay in the body. Consider `O=c1nc(N2CCC3(CCN(Cc4ccc(Br)cc4)CC3)CC2)sc2c([N+](=O)[O-])cc(C(F)(F)F)cc12`, for which, in data set [1], the MIC90 was 0.057 µM (≈ 0.0341 µg/mL). In addition, in data set [2], the solubility at 12 h amounted to 1.17 µg/mL (≈ 1.96 µM). Moreover, in data set [3], the CC50 at 72 h was 1680 µM. In the data set with Mus musculus, the Activity result is recorded as “Non-Toxic”. The half-life in data set [4] was 10.7 h. Further, in data set [5], the Tmax worked out at 1 h. The compound also registered a Cmax in [6] of 1680 ng/mL. The compound also returned an AUC(0-inf) in [7] of 24600 ng·h/mL. Further, in data set [8], the MRT amounted to 15.9 h.
Consider `O=c1nc(N2CCN(CC3CCCCC3)CC2)sc2c([N+](=O)[O-])cc(C(F)(F)F)cc12` [MACOZINONE], for which the MIC90 in data set [1] was < 0.035 µM. The compound further gave a solubility at 12 h in data set [2] of 0.9 µg/mL (≈ 1.97 µM). Also, in data set [3], the CC50 at 72 h came out at 1400 µM. Moreover, in [4], the half-life was 2.87 h. Also, the Tmax in data set [5] came to 0.83 h. The Cmax in data set [6] was 1300 ng/mL. In [7], this compound yielded an AUC(0-inf) of 5480 ng·h/mL. The compound further gave an MRT in data set [8] of 3.73 h.
`O=C(CN1CCC2(CC1)CCN(c1nc(=O)c3cc(C(F)(F)F)cc([N+](=O)[O-])c3s1)CC2)OCc1ccccc1` registered an MIC90 in data set [1] of 0.352 µM (≈ 0.203 µg/mL).
Same read-out and setting: then `COc1cc(CN2CCC3(CC2)CCN(c2nc(=O)c4cc(C(F)(F)F)cc([N+](=O)[O-])c4s2)CC3)cc(OC)c1`, with 0.825 µM (≈ 0.477 µg/mL).
On the same count and under the same terms, as for `COc1ccccc1CN1CCC2(CCN(c3nc(=O)c4cc(C(F)(F)F)cc([N+](=O)[O-])c4s3)CC2)C1`, the figure is 1.68 µM (≈ 0.896 µg/mL).
Turning to `CCOC(=O)CN1CCC2(CCN(c3nc(=O)c4cc(C(F)(F)F)cc([N+](=O)[O-])c4s3)CC2)C1`, the MIC90 in [1] is 0.062 µM (≈ 0.031 µg/mL). In addition, the solubility at 12 h in data set [2] worked out at 2.04 µg/mL (≈ 4.08 µM). Moreover, in data set [3], the CC50 at 72 h turned out to be 266 µM. Further, in the data set with Mus musculus, the Activity result is given as “Non-Toxic”. Further, the half-life in data set [4] was 3.46 h. In addition, the Tmax in data set [5] stood at 0.67 h. Besides, the highest level in data set [6] (Cmax) was 17.6 ng/mL. In [7], this compound yielded an AUC(0-inf) of 41.8 ng·h/mL. In data set [8], the MRT came to 5.2 h.
Regarding `COc1ccc(CN2CC3(CCN(c4nc(=O)c5cc(C(F)(F)F)cc([N+](=O)[O-])c5s4)CC3)C2)cc1`, in data set [1], the MIC90 worked out at 0.113 µM (≈ 0.0588 µg/mL). Further, in [2], the solubility at 12 h amounted to 1.2 µg/mL (≈ 2.31 µM). Further, the CC50 at 72 h in data set [3] was determined as 78.9 µM.
On to `O=c1nc(N2CCC3(CCN(Cc4cccc(F)c4)CC3)CC2)sc2c([N+](=O)[O-])cc(C(F)(F)F)cc12`, for which, in [1], the MIC90 was determined as 0.054 µM (≈ 0.029 µg/mL). The compound also yielded a solubility at 12 h in data set [2] of 1.13 µg/mL (≈ 2.11 µM). The CC50 at 72 h in data set [3] came to 1400 µM. Besides, in the data set with Mus musculus, the Activity result is listed as “Non-Toxic”. The half-life in data set [4] was 3.53 h. Besides, the Tmax in data set [5] amounted to 0.67 h. The Cmax in data set [6] was 901 ng/mL. Moreover, the AUC(0-inf) in [7] is 4870 ng·h/mL. Moreover, the mean residence time (MRT) in [8] was 4.83 h.
In turn, `O=c1nc(N2CCC3(CCN(Cc4ccccc4)CC3)CC2)sc2c([N+](=O)[O-])cc(C(F)(F)F)cc12` displayed an MIC90 in data set [1] of 0.847 µM (≈ 0.439 µg/mL).
Same read-out and setting: as for `CO[C@H]1/C=C/O[C@@]2(C)Oc3c(C)c(O)c4c(O)c(c(/C=N/N5CCN(C)CC5)c(O)c4c3C2=O)NC(=O)/C(C)=C\C=C\[C@H](C)[C@H](O)[C@@H](C)[C@@H](O)[C@@H](C)[C@H](OC(C)=O)[C@@H]1C` [RIFAMPIN], the figure is 0.092 µM (≈ 0.0757 µg/mL).
Take `O=c1nc(N2CCC3(CCN(Cc4ccc(C(F)(F)F)cc4)CC3)CC2)sc2c([N+](=O)[O-])cc(C(F)(F)F)cc12`: in data set [1], the MIC90 is < 0.035 µM. In data set [2], this compound displayed a solubility at 12 h of 1.24 µg/mL (≈ 2.11 µM). Further, in [3], the CC50 at 72 h amounted to 145 µM. Besides, in the data set on Mus musculus, the Activity result is reported as “Non-Toxic”. Also, in data set [4], the half-life is 3.59 h. In addition, the time of peak concentration (Tmax) in [5] was found to be 1.33 h. For the same compound, the Cmax in [6] is 2700 ng/mL. The compound also registered an AUC(0-inf) in data set [7] of 28700 ng·h/mL. Also, in [8], the MRT worked out at 6.07 h.
`O=c1nc(N2CCC3(CC2)CN(CC2CCCCC2)C3)sc2c([N+](=O)[O-])cc(C(F)(F)F)cc12`: the MIC90 in data set [1] is 0.468 µM (≈ 0.232 µg/mL).
With `O=c1nc(N2CCC3(CCN(Cc4cc(F)cc(F)c4)CC3)CC2)sc2c([N+](=O)[O-])cc(C(F)(F)F)cc12`, the MIC90 in data set [1] was < 0.035 µM. Besides, the solubility at 12 h in [2] was determined as 0.67 µg/mL (≈ 1.21 µM). Besides, the CC50 at 72 h in [3] was found to be 1170 µM. Besides, the Activity result in the data set with Mus musculus was “Non-Toxic”. Further, the half-life in data set [4] is 4.68 h. Further, in data set [5], the Tmax stood at 0.5 h. The compound further came in with a Cmax in [6] of 426 ng/mL. For the same compound, the AUC(0-inf) in data set [7] turned out to be 2600 ng·h/mL. The compound further returned a mean residence time (MRT) in data set [8] of 5.8 h.
The compound `COc1ccc(C(=O)N2CCC3(CC2)CCN(c2nc(=O)c4cc(C(F)(F)F)cc([N+](=O)[O-])c4s2)CC3)cc1` had an MIC90 in data set [1] of 26.6 µM (≈ 15 µg/mL).
Same read-out and setting: then `CN1CCC2(CC1)CCN(c1nc(=O)c3cc(C(F)(F)F)cc([N+](=O)[O-])c3s1)CC2`, with 33.5 µM (≈ 14.8 µg/mL).
In data set [1], `COc1ccc(CN2CCC3(CC2)CCN(c2nc(=O)c4cc(C(F)(F)F)cc([N+](=O)[O-])c4s2)CC3)cc1` displayed an MIC90 of 1 µM (≈ 0.551 µg/mL).
`O=C(CN1CCC2(CC1)CCN(c1nc(=O)c3cc(C(F)(F)F)cc([N+](=O)[O-])c3s1)CC2)NCc1ccccc1` yielded an MIC90 in data set [1] of 6.42 µM (≈ 3.69 µg/mL).
`O=c1nc(N2CCC3(CCN(Cc4ccccc4)C3)CC2)sc2c([N+](=O)[O-])cc(C(F)(F)F)cc12` displayed an MIC90 in data set [1] of 0.06 µM (≈ 0.0303 µg/mL). The solubility at 12 h in data set [2] stood at 1.56 µg/mL (≈ 3.09 µM). Moreover, the half-maximal cytotoxic concentration (CC50) at 72 h in data set [3] worked out at 289 µM.
In [1], `CCOC(=O)CN1CC2(CCN(c3nc(=O)c4cc(C(F)(F)F)cc([N+](=O)[O-])c4s3)CC2)C1` returned an MIC90 of 0.444 µM (≈ 0.216 µg/mL).
The same measure, in the same setting: as for `O=c1nc(N2CCC3(CCN(CC4CCCCC4)CC3)CC2)sc2c([N+](=O)[O-])cc(C(F)(F)F)cc12`, the figure is 0.944 µM (≈ 0.495 µg/mL); as for `O=c1nc(N2CCC3(CCN(CC4CCCCC4)C3)CC2)sc2c([N+](=O)[O-])cc(C(F)(F)F)cc12`, 0.22 µM (≈ 0.112 µg/mL).
Compound `CC(C)(C)OC(=O)N1CC2(CCN(c3nc(=O)c4cc(C(F)(F)F)cc([N+](=O)[O-])c4s3)CC2)C1` returned an MIC90 in data set [1] of 1.92 µM (≈ 0.963 µg/mL).
`O=c1nc(N2CCC3(CCN(Cc4ccc(F)cc4)CC3)CC2)sc2c([N+](=O)[O-])cc(C(F)(F)F)cc12` displayed an MIC90 in data set [1] of 0.21 µM (≈ 0.113 µg/mL).
The same measure, in the same setting: then `NNC(=O)c1ccncc1` [ISONIAZID], with 0.284 µM (≈ 0.0389 µg/mL); and `CC(C)(C)OC(=O)N1CCC2(CC1)CCN(c1nc(=O)c3cc(C(F)(F)F)cc([N+](=O)[O-])c3s1)CC2`, with 0.219 µM (≈ 0.116 µg/mL); and `CCOC(=O)CN1CCC2(CC1)CCN(c1nc(=O)c3cc(C(F)(F)F)cc([N+](=O)[O-])c3s1)CC2`, with 0.542 µM (≈ 0.279 µg/mL).
As for `CCN(CC)C(=O)CN1CCC2(CC1)CCN(c1nc(=O)c3cc(C(F)(F)F)cc([N+](=O)[O-])c3s1)CC2`, the MIC90 in data set [1] was 6.32 µM (≈ 3.42 µg/mL).
The same measure, in the same setting: as for `CC(C)(C)OC(=O)N1CCC2(CCN(c3nc(=O)c4cc(C(F)(F)F)cc([N+](=O)[O-])c4s3)CC2)C1`, the figure is 3.26 µM (≈ 1.68 µg/mL).
`O=c1nc(N2CCC3(CCN(Cc4ccc(F)cc4)C3)CC2)sc2c([N+](=O)[O-])cc(C(F)(F)F)cc12`: the MIC90 in data set [1] was < 0.035 µM. Further, in data set [2], the solubility at 12 h came out at 1.12 µg/mL (≈ 2.14 µM). In addition, in data set [3], the CC50 at 72 h came to 811 µM. Besides, the half-life in data set [4] is 3.11 h. In data set [5], the Tmax was 1.08 h. For the same compound, the concentration in data set [6] peaked (Cmax) at 1230 ng/mL. Besides, in [7], the AUC(0-inf) is 6020 ng·h/mL. Besides, the MRT in data set [8] was 4 h.
